# Assay results published in PMC12361428 (Nature Communications, 2025).
# Several values for one entry are separate records, joined by “and”; a condition that tells them apart may be missing. Identical values can stand only once.
# Columns and labels:
# A1AR = settings: source not given; cited from earlier work
# [1] = system: Nluc-tagged hA3AR-BRIL-S97R; experiment: NanoBRET washout (irreversible binding) assay vs XAC-630
# [2] = system: A3AR H95^3.37 alanine mutation; settings: cited from earlier work
SMILES,pKi (A1AR),"NanoBRET washout assay, normalised signal (Figure S2G), individual replicates ([1]; 4 x Wash)","NanoBRET washout assay, normalised signal (Figure S2G), individual replicates ([1]; Control (no wash))",decrease in binding [2]
CCCn1c(=O)c2[nH]c(C3CCCCC3)nc2n(CCCNC(=O)c2ccc(S(=O)(=O)F)cc2)c1=O [DU172],7.4,–,–,–
"O=C(Cc1ccccc1)Nc1nc2ccc(Cl)cc2c2nc(-c3ccco3)nn12 [MRS1220, 9-Chloro-2-(2-furanyl)-5-((phenylacetyl)amino)-[1,2,4]triazolo[1,5-c]quinazoline]",–,60.7809 and 60.2862 and 64.3691,11.5596 and 12.4414 and 6.2814 and 13.7989,–
CNC(=O)[C@H]1O[C@@H](n2cnc3c(NCc4cccc(I)c4)nc(Cl)nc32)[C@H](O)[C@@H]1O [Namodenoson],–,–,–,30 fold
CC[C@@H]1CN2C(=O)N(C)c3nc(-c4ccccc4)[nH]c3C2=N1 [PSB11],–,116.307 and 107.384 and 90.4226 and 99.5492,1.581 and 3.183e-15 and -2.281 and -2.887e-15,–
